Source: patent publication US20060183119A1, “Method for determining predisposition to a physiological reaction in a patient” (UNIVERSITE LAVAL, priority 2002, published 2006)
Where a chain is given by its changes, count along the chain named.

How the values were obtained:
UGT1A7*6 = molecular target: T1, UGT1A7*6 (Homo sapiens, UniProt Q9HAW7, E139D); test: SN-38 glucuronidation by microsomes of HEK293 cells expressing UGT1A7*6; assay type: in vitro ADME; design: key to Function (SN-38G formation versus *1 allele): High: no significant difference in activity compared to *1 allele.; Low: significantly lower SN-38G formation versus *1 allele
T1 construct: expressed in transfected cells
T1 sequence (Q9HAW7 26-530 E139D): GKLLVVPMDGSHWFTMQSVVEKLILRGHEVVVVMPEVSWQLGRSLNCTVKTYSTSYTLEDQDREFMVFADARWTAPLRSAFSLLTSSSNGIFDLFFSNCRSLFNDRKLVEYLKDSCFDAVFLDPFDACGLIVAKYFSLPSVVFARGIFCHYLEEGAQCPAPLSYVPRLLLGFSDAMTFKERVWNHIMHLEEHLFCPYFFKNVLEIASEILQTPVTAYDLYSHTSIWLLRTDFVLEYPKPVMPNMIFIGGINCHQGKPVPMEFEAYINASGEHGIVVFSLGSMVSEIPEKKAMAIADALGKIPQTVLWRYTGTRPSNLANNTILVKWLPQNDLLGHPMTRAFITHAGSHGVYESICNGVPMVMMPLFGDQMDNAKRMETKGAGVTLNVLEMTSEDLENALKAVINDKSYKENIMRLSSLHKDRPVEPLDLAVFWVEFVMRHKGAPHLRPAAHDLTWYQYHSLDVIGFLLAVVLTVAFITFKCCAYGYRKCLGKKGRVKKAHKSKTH
Procedure: (§1) Western blot analyses of UGT1A7 and UGT1A9 variants expressed in HEK293 cells were performed on microsomal proteins (10 μg) separated on a 10% SDS-polyacrylamide gel. After transferring the proteins, the membranes were probed with an anti-UGT1A RC-71 polyclonal antibody and with an anti-calnexin antibody. The relative levels of UGT1A9 (a) and UGT1A7 proteins (b) were determined by semi-quantitative densitometric analysis of the Enhanced chemiluminescence (ECL) image. The in vitro SN-38 activity was assessed using microsomal fractions prepared from HEK293 cells expressing the *1 and variant UGT1A9 (c) and UGT1A7 (d) alleles and incubated with 5 μM of SN-38 as described in Materials and Methods.
(§2) For the determination of Vmax and Km.

UGT1A7*5 = molecular target: T2, UGT1A7*5 (Homo sapiens, UniProt Q9HAW7, G115S); test: SN-38 glucuronidation by microsomes of HEK293 cells expressing UGT1A7*5; assay type: in vitro ADME; design: key to Function (SN-38G formation versus *1 allele): High: no significant difference in activity compared to *1 allele.; Low: significantly lower SN-38G formation versus *1 allele
T2 construct: expressed in transfected cells
T2 sequence (Q9HAW7 26-530 G115S): T1 sequence (Q9HAW7 26-530 E139D) with G90S, D114E
Procedure: as §1, §2

CCc1c2c(nc3ccc(O)cc13)-c1cc3c(c(=O)n1C2)COC(=O)[C@]3(O)CC [SN-38, 7-ethyl-10-hydroxycamptothecin]
SN-38 glucuronidating activity of the allele (in words) (UGT1A7*6): highest
Function (SN-38G formation versus *1 allele) (UGT1A7*6; in vitro experiments): High
SN-38 glucuronidating activity of the allele (in words) (UGT1A7*5): low
Function (SN-38G formation versus *1 allele) (UGT1A7*5; in vitro experiments): Low
lower rates of SN-38G formation compared to UGT1A7*1 (UGT1A7*5; range given for *5, *7 and *8 together): 38-76%
